Experimental data from patent US20250115571A1, “OXOPIPERAZINE DERIVATIVES” (Inthera Bioscience AG, priority 2017, published 2025).

Assays:
[1] = tested on: PC3; experiment: 9-day colony survival assay (CFA); assay type: cell-based; conditions: Homo sapiens, PC-3, 216 h, PC3 (prostate), read-out: GI50 (50% growth inhibition)
[2] = tested on: MKN45 human gastric adenocarcinoma cells; experiment: Cell-derived xenograft mouse model for gastric cancer (MKN45 CDX); assay type: in vivo; conditions: 6 mg/kg, QD, p.o.
Procedure: Female BALB/c nude mice (8-9 weeks of age) were injected with MKN45 human gastric adenocarcinoma cells. The cells were inoculated subcutaneously into the left flank of 48 mice. When tumors reached a mean volume of approximately 103 mm^3, mice were randomly assigned to eight treatment groups of each six mice (TABLE 16). Body weights were measured three times weekly prior to the initiation of dosing and daily thereafter. Tumor burden was assessed by caliper measurement twice weekly. Dosing breaks were applied when tolerability issues arose (body weight loss>10%). The study was terminated four weeks post first dosing. The experiment was performed in the Crown Bioscience Ltd. (Beijing) testing facility (Ground Floor, Light Muller Building, Changping Sector of Zhongguancun Scientific Park, No. 21 Huoju Road, Changping District, Beijing, CHN).

[3] = tested on: hormone-refractory DU-145 human prostate cancer cells; experiment: Cell-derived xenograft mouse model for prostate cancer (DU-145 CDX); assay type: in vivo; conditions: 3 mg/kg, p.o. QD × 4 weeks
Procedure: Male BALB/c nude mice (7-9 weeks of age) were injected with hormone-refractory DU-145 human prostate cancer cells. The cells were inoculated subcutaneously into the left flank of 48 mice. When tumors reached a mean volume of approximately 105 mm^3, mice were randomly assigned to eight treatment groups of each six mice (TABLE 12). Body weights were measured three times weekly prior to the initiation of dosing and daily thereafter. Tumor burden was assessed by caliper measurement three times weekly. Dosing breaks were applied when tolerability issues arose (body weight loss>10%). The study was terminated 4 weeks post first dosing. The experiment was performed in the Crown Bioscience Ltd. (Beijing) testing facility (Ground Floor, Light Muller Building, Changping Sector of Zhongguancun Scientific Park, No. 21 Huoju Road, Changping District, Beijing, CHIN).

[4] = tested on: CaSki; experiment: 9-day colony survival assay (CFA); assay type: cell-based; conditions: Homo sapiens, Ca-Ski, 216 h, CaSki (cervix), read-out: GI50 (50% growth inhibition)
Excerpt: Cell culture. CaSki cells (cervical cancer) were obtained from CLS GmbH, Eppelheim, Germany (cat #300145) and subcultured in ready-to-use RPMI1640 Media (CLS #820700) after addition of “Antibiotic Antimycotic Solution” (Sigma-Aldrich, St Louis, USA) at 1:100 dilution. The cells were expanded, and aliquots kept frozen in liquid nitrogen according to manufacturer's instructions; tested for mycoplasma contamination and genotyped (Microsynth AG, Balgach, Switzerland). Once thawed, aliquots were passaged every second or third day at a seed density of 20′000 cells/cm^2; and used for a maximum of twenty passages. For passaging, cell culture flasks were rinsed twice with Ca++/Mg++-free Phosphate-Buffered Saline (DPBS, CLS #860015) and incubated with Accutase (CLS #830100) for 15 min at 37° C. Cells were resuspended in a four-fold volume of ready-to-use RPMI, centrifuged at 300 g for ten minutes, the supernatant discarded and the cells resuspended in ready-to-use RPMI1640 by pipetting up and down five times with a serological pipette. Cell density was determined with a Via-1 Cassette (Chemometec, Allerod, Denmark) on a Nucleocounter NC 3000 (Chemometec). Where not stated, consumables and chemicals were purchased from well-known suppliers.
Preparation of the cells for CFA. Cell culture flasks were rinsed twice with DPBS and incubated with Accutase for 15 min at 37° C. Cells were resuspended in a four-fold volume of ready-to use RPMI, centrifuged at 300 g for ten minutes, the supernatant discarded and the cells resuspended in ready-to-use RPMI1640 by pipetting up and down ten times with a serological pipette. Cell density was determined with a Via-1 Cassette on a Nucleocounter NC 3000. The required amount of cells was first diluted 1:10 in ready-to-use RPMI; cells pipetted five times up-down with a serological pipette; and the 1:10 solution added to the final volume needed for the whole assay setup. Cells were mixed again by pipetting up and down twenty times with a serological pipette. The cell density used for the experiment was of 140 cells/ml.
Seeding. Cells were seeded row-wise in 12-well plates, while triplicates were treated column-wise (i.e. all the first rows were seeded first, then the second rows, and finally the third rows). One and a half ml cell suspension solution (a total of 210 cells) were added per well.
Treatment. Compound stock solutions were prepared at a concentration of 30 mM in 50% DMSO/50% water; and diluted in the same solution so that the volume added to the wells was of 2.5 μl and the final DMSO well concentration of 0.08%. Untreated cells (negative controls) were incubated in a) medium only; and b) 0.08% DMSO. […] The plates were swirled gently after addition of the compounds and the cells incubated for nine days at 37° C. Culture incubation solutions were replaced after five days.
Staining. Colonies were washed twice with ice-cold DPBS and fixed on ice with 1 ml ice-cold 10% methanol solution for 30 min. The methanol solution was removed and colonies incubated with 0.1% Crystal Violet/DBPS for 20 min at room temperature. The wells were rinsed consecutively with 1.5, 1, and 0.5 ml water at room temperature and let dry.
Destaining and data evaluation. […] Absorbance was measured at 600 nm with a SpectraMax M2e reader (Molecular Devices, Sunnyvale, CA, USA). Percentage of colony formation was calculated from the average of the well triplicates compared to the untreated DMSO controls after subtraction of blank values. […]

[5] = tested on: HCT116; experiment: 9-day colony survival assay (CFA); assay type: cell-based; conditions: Homo sapiens, HCT-116, 216 h, HCT116 (colon), read-out: GI50 (50% growth inhibition)
[6] = tested on: A549; experiment: 9-day colony survival assay (CFA); assay type: cell-based; conditions: Homo sapiens, 216 h, A549 (lung), read-out: GI50 (50% growth inhibition)

| Structure (SMILES) | GI50 [1] [nM] | Tumor Size day 29 ([2]; MKN45 CDX, female BALB/c nude mice, Mean ± SEM) [mm^3] | T/C ([2]; day 29, tumor-to-control ratio (volume/volume)) [%] | Tumor Size day 35 (Mean ± SEM) [3] [mm^3] | T/C (tumor-to-control ratio, volume/volume) ([3]; day 35) [%] | GI50 [4] [nM] | GI50 [5] [nM] | GI50 [6] [nM] |
| --- | --- | --- | --- | --- | --- | --- | --- | --- |
| CC(C)C[C@@H]1NCCN([C@@H](CC(C)C)C(=O)N2CCC3(C[C@@H]2C)OCC(CN2CCC(C)CC2)CO3)C1=O (stereo partly drawn) [Compound 253, (3S)-1-[(2S)-4-methyl-1-oxo-1-[(3s,6s,8S)-8-methyl-3-[(4-methylpiperidin-1-yl)methyl]-1,5-dioxa-9-azaspiro[5.5]undec-an-9-yl]pentan-2-yl]-3-(2-methylpropyl)piper-azin-2-one (^≠), isomer Z] | 4 | 506.5 ± 71.0 | 42.6 | 480 ± 49 | 69.3 | 4.5 | 2 | 7 |
| CC(C)C[C@H]1C(=O)N([C@@H](CC(C)C)C(=O)N2CCC3(C[C@@H]2C)OCC(CN2CCCC2)CO3)CCN1C (stereo partly drawn) [Compound 287, (3S)-4-methyl-1-[(2S)-4-methyl-1-oxo-1-[(3s,6s,8S)-8-methyl-3-(pyrrolidin-1-ylmethyl)-1,5-dioxa-9-azaspiro[5.5]undec-an-9-yl]pentan-2-yl]-3-(2-methylpropyl)piper-azin-2-one (^≠), isomer Z] | 7 |  |  |  |  | 13 | 1.5 | 20 |
